Data: US5274118A, “Process for preparing (2R)-methyl-4,4,4-trifluorobutylamine” (Imperial Chemical Industries PLC, priority 1990, dated 1993)
pKi: −log10 of the molar value.

Experiments:
leukotriene LTD4 = assay: guinea-pig aerosol test (LTD4 aerosol challenge, onset of dyspnea); type: in vivo; details: guinea-pigs
Protocol: According to this procedure, guinea-pigs are pre-dosed with test compound as a solution in poly(ethylene glycol) (generally 1 hour) before an aerosol challenge of leukotriene LTD4 (starting with 2 ml of a 30 microgram/ml solution) and the effect of the test compound on the average time of leukotriene initiated change in breathing pattern (such as onset of dyspnea) recorded and compared with that in undosed, control guinea-pigs. Percent protection engendered by a test compound was calculated from the time delay to the onset of dyspnea compared to that for control animals.

[1] = target: T1, leukotrienes LTC4, LTD4 and/or LTE4 (Cavia porcellus, UniProt Q2NNR5); assay: receptor-ligand binding assay described by Aharony; details: typically determined
T1 construct: from tissue
T1 sequence (Q2NNR5 1-340): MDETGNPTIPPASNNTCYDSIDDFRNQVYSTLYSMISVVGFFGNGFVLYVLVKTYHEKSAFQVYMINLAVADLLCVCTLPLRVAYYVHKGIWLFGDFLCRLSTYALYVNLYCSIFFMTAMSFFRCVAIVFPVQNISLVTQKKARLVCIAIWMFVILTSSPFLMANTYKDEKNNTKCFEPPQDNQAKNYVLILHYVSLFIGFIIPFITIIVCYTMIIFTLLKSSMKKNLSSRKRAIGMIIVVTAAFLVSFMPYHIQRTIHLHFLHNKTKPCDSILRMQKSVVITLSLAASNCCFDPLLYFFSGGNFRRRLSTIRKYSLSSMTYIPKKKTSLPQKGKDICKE

In the case of `COc1cc(C(=O)NS(=O)(=O)c2ccccc2C)ccc1Cc1cn(C)c2ccc(C(=O)NC[C@H](C)CC(F)(F)F)cc12` [compound of formula I substantially in the form of the (R)-enantiomer, (R)-3-Methoxy-4-[1-methyl-5-(2-methyl-4,4,4-trifluorobutylcarbamoyl)indol-3-ylmethyl]-N-(2-methylphenylsulfonyl)benzamide], the ED50 (leukotriene LTD4; Cavia porcellus, oral administration, pre-dosed generally 1 hour before LTD4 aerosol challenge, read-out: ED50 (protection against LTD4-induced dyspnea)) was 1.1 µmol/kg, the untoward side-effects (leukotriene LTD4; oral, at several multiples of the minimum effective dose) was “without any indication of untoward side-effects” and the pKi [1] was 9.40.
